± gives the standard deviation of the averaged measurements.
Columns and labels:
Test in all cases: level (log10 ratio to DMSO vehicle control); higher = higher biomarker level / cell amount than vehicle control
Conditions in all cases: in DMSO
[1] = compound: FC(F)(F)C(F)(F)C(F)(F)CC1CO1 [1H,1H-Heptafluorobutyl epoxide]
Method: (§1)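 BioMAP Diversity Plus panel of 12 human primary cell co-culture systems (3C, 4H, LPS, SAg, BT, BF4T, BE3C, CASM3C, HDF3CGF, KF3CT, MyoF, Mphg). Compounds were added 1 h before stimulation and left for 24 h (MyoF 48 h; BT 72 h for soluble read-outs or 6 d for IgG). Biomarkers were read by ELISA, cytotoxicity by SRB, PBMC viability and proliferation by Alamar Blue. Each well value was divided by the mean of 8 DMSO control wells on the same plate and log10 transformed; duplicate blinded samples were tested at 4 concentrations.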

Heptafluorobutyl iodide = compound: FC(F)(F)C(F)(F)C(F)(F)CI [Heptafluorobutyl iodide]
Method: as §1

Octafluoroadipamide = compound: NC(=O)C(F)(F)C(F)(F)C(F)(F)C(F)(F)C(N)=O [Octafluoroadipamide]
Method: as §1

[2] = compound: O=C(O)C(F)(F)C(F)(F)C(F)(F)C(F)(F)C(F)(F)C(F)(F)C(F)(F)C(F)(F)C(F)(F)C(F)F [11-H-Perfluoroundecanoic acid]
Method: as §1

[3] = compound: O=S(=O)(F)C(F)(F)C(F)(F)C(F)(F)C(F)(F)C(F)(F)C(F)(F)C(F)(F)C(F)(F)F [Perfluorooctanesulfonyl fluoride]
Method: as §1

Row | Test System | level (log10) ([1]; 6700 nM) | level (log10) ([1]; 20000 nM) | level (log10) ([1]; 60000 nM) | level (log10) (Heptafluorobutyl iodide; 6700 nM) | level (log10) (Heptafluorobutyl iodide; 20000 nM) | level (log10) (Heptafluorobutyl iodide; 60000 nM) | level (log10) (Octafluoroadipamide; 6700 nM) | level (log10) (Octafluoroadipamide; 20000 nM) | level (log10) (Octafluoroadipamide; 60000 nM) | level (log10) ([2]; 6700 nM) | level (log10) ([2]; 20000 nM) | level (log10) ([3]; 6700 nM) | level (log10) ([3]; 20000 nM) | level (log10) ([3]; 60000 nM)
1 | MyoF:SRB | -0.006 ± 0.017 | -0.0045 ± 0.0021 | -0.002 ± 0.0057 | 0.002 ± 0.0028 | -0.0015 ± 0.0021 | 0.0075 ± 0.011 | -0.004 ± 0.0028 | -0.01 ± 0.0042 | -0.0055 ± 0.0078 | -0.001 ± 0.0014 | -0.086 ± 0.0028 | -0.0155 ± 0.012 | -0.0245 ± 0.025 | 0.004 ± 0.0085
2 | MyoF:PAI-I | -0.005 ± 0.024 | -0.0105 ± 0.012 | 0 ± 0.016 | -0.0105 ± 0.0021 | -0.005 ± 0.0028 | 0.007 ± 0.023 | -0.008 ± 0.027 | 0.0045 ± 0.0035 | 0.009 ± 0.0042 | 0.0105 ± 0.012 | -0.013 ± 0.02 | -0.0045 ± 0.0035 | -0.0015 ± 0.00071 | 0.006 ± 0.0099
3 | KF3CT:CXCL10/IP-10 | -0.011 ± 0.027 | -0.012 ± 0.021 | -0.0175 ± 0.016 | -0.009 ± 0.0014 | -0.0175 ± 0.0078 | -0.013 ± 0.0028 | -0.002 ± 0.0042 | 0.002 ± 0.0071 | 0.0005 ± 0.005 | -0.036 ± 0.0057 | -0.211 ± 0.011 | -0.0015 ± 0.0035 | -0.0105 ± 0.00071 | -0.011 ± 0.014
4 | 4H:CCL26/Eotaxin-3 | 0.0055 ± 0.0064 | -0.0365 ± 0.025 | 0.032 ± 0.062 | 0.0215 ± 0.023 | 0.0385 ± 0.023 | 0.0485 ± 0.032 | 0.04 ± 0.038 | 0.025 ± 0.069 | 0.012 ± 0.069 | -0.0435 ± 0.012 | -0.0535 ± 0.037 | 0.001 ± 0.0028 | -0.0025 ± 0.00071 | 0.0005 ± 0.005
5 | LPS:CD40 | 0.0165 ± 0.054 | 0.0105 ± 0.053 | 0.026 ± 0.024 | -0.045 ± 0.018 | -0.0035 ± 0.013 | 0.001 ± 0.0057 | -0.044 ± 0.016 | -0.022 ± 0.035 | 0 ± 0.0028 | -0.0115 ± 0.015 | -0.0505 ± 0.03 | 0.031 ± 0.12 | 0.0455 ± 0.094 | 0.033 ± 0.1
6 | CASM3C:CCL2/MCP-1 | -0.007 ± 0.023 | -0.0275 ± 0.00071 | 0.004 ± 0.014 | -0.0055 ± 0.0021 | -0.021 ± 0.011 | 0.018 ± 0.045 | -0.0095 ± 0.0078 | -0.0085 ± 0.0078 | 0.017 ± 0.02 | 0.0005 ± 0.0035 | 0.012 ± 0.024 | -0.004 ± 0.014 | -0.0035 ± 0.005 | 0.0055 ± 0.03
7 | CASM3C:CD141/Thrombomodulin | -0.0145 ± 0.047 | -0.0265 ± 0.018 | 0.001 ± 0.035 | -0.025 ± 0.0099 | -0.039 ± 0.0085 | -0.0125 ± 0.013 | 0.0225 ± 0.0064 | 0.0095 ± 0.019 | 0.007 ± 0.02 | -0.015 ± 0.021 | -0.0085 ± 0.019 | -0.004 ± 0.0042 | -0.01 ± 0.0014 | -0.0075 ± 0.005
8 | CASM3C:CD106/VCAM-1 | -0.015 ± 0.035 | -0.031 ± 0.014 | 0.0055 ± 0.013 | -0.023 ± 0.013 | -0.0245 ± 0.019 | -0.028 ± 0.0042 | -0.0525 ± 0.005 | -0.04 ± 0.018 | -0.0275 ± 0.033 | -0.016 ± 0.027 | -0.023 ± 0.021 | 0.0015 ± 0.032 | 0.0035 ± 0.05 | -0.008 ± 0.0085
9 | LPS:CCL2/MCP-1 | -0.0025 ± 0.005 | -0.017 ± 0.023 | -0.0095 ± 0.0021 | 0.008 ± 0.041 | 0.0035 ± 0.013 | 0.027 ± 0.024 | 0.003 ± 0.0042 | 0.0005 ± 0.0035 | 0.018 ± 0.021 | -0.009 ± 0.0085 | -0.022 ± 0.0099 | 0.0005 ± 0.015 | -0.012 ± 0.016 | 0.0145 ± 0.028
10 | 3C:CD142/Tissue Factor | 0.034 ± 0.0071 | 0 ± 0.033 | 0.0075 ± 0.022 | -0.0315 ± 0.019 | 0.0095 ± 0.016 | -0.0155 ± 0.019 | 0.007 ± 0.082 | 0.0255 ± 0.073 | 0.0795 ± 0.046 | -0.011 ± 0.011 | -0.0245 ± 0.013 | -0.0085 ± 0.005 | -0.0175 ± 0.0021 | -0.0105 ± 0.0021

Source: the supplement of paper PMC10331698
